Laboratory results: US20230233569A1 (Revolution Medicines, Inc., priority 2020, published 2023)
pEC50, pIC50: −log10 of the molar value. Where two headings read alike, the source gives them in different places.

Columns and labels:
[1] = tested on: AsPC-1 (K-Ras G12D); assay: Potency assay: pERK; assay type: cell-based; conditions: Homo sapiens
[2] = tested on: AsPC-1 (K-Ras G12D); assay: CellTiter-Glo cell viability assay; assay type: cell-based; conditions: Homo sapiens, ASPC1, 120 h
How it was run: (§1)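 Luminescent viability readout on day 5, plates first brought to room temperature for ~30 min; compounds added straight to plated RAS-mutant cells. Values expressed as percent of mean DMSO signal, curves fitted with a four-parameter logistic model.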

[3] = tested on: NCI-H358 (K-Ras G12C); assay: CellTiter-Glo cell viability assay; assay type: cell-based; conditions: Homo sapiens, NCI-H358, 120 h
How it was run: as §1

[4] = biological target: KRAS G12D (Homo sapiens, UniProt P01116+P62937, G12D); assay: Ras-Raf disruption / FRET / MOA assay (BRAF RBD); assay type: biochemical; conditions: with Cyclophilin A
How it was run: (§2)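 Compound-induced Ras–Cyclophilin A ternary complex disrupting BRAF RBD binding, read as IC50 from reduced TR-FRET ratio relative to DMSO. Final: Ras-GMPPNP 12.5 nM, BRAF RBD 50 nM, Cyclophilin A 25 μM, top compound 30 μM (3-fold, 10 points); 3 h at 25 °C, then 1.5 h with detection antibodies.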

[5] = biological target: KRAS G12S (Homo sapiens, UniProt P01116+P62937, G12S); assay: Ras-Raf disruption / FRET / MOA assay (BRAF RBD); assay type: biochemical; conditions: with Cyclophilin A
How it was run: as §2

[6] = biological target: KRAS G12V (Homo sapiens, UniProt P01116+P62937, G12V); assay: Ras-Raf disruption / FRET / MOA assay (BRAF RBD); assay type: biochemical; conditions: with Cyclophilin A
How it was run: as §2

[7] = biological target: KRAS G13C (Homo sapiens, UniProt P01116+P62937, G13C); assay: Ras-Raf disruption / FRET / MOA assay (BRAF RBD); assay type: biochemical; conditions: with Cyclophilin A
How it was run: as §2

[8] = biological target: KRAS G13D (Homo sapiens, UniProt P01116+P62937, G13D); assay: Ras-Raf disruption / FRET / MOA assay (BRAF RBD); assay type: biochemical; conditions: with Cyclophilin A
How it was run: as §2

[9] = biological target: KRAS WT (Homo sapiens, UniProt P01116+P62937); assay: Ras-Raf disruption / FRET / MOA assay (BRAF RBD); assay type: biochemical; conditions: with Cyclophilin A
How it was run: as §2

[10] = biological target: NRAS G12C (Homo sapiens, UniProt P01111+P62937, G12C); assay: Ras-Raf disruption / FRET / MOA assay (BRAF RBD); assay type: biochemical
How it was run: as §2

[11] = biological target: KRAS G12C (Homo sapiens, UniProt P01116+P62937, G12C); assay: Ras-Raf disruption / FRET / MOA assay (BRAF RBD); assay type: biochemical; conditions: with Cyclophilin A
How it was run: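 TR-FRET read-out after 1.5 h with anti-His Eu-W1024 (10 nM) and anti-GST APC (50 nM), following 3 h at 25 °C of compound (top 30 μM, 3-fold, 10 points) with 25 μM Cyclophilin A, 12.5 nM GMPPNP-loaded K-Ras G12C and 50 nM BRAF RBD; IC50 reported.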

[12] = read-out: AsPC-1 Cell Viability assay data IC50, K-Ras G12D, 5-day treatment
[13] = read-out: H358 Cell Viability assay data IC50, K-Ras G12C, 5-day treatment
[14] = KRAS G12D FRET data IC50, Ras-Raf disruption
[15] = KRAS G12S FRET data IC50, Ras-Raf disruption
[16] = KRAS G12V FRET data IC50, Ras-Raf disruption
[17] = KRAS G13C FRET data IC50, Ras-Raf disruption
[18] = KRAS G13D FRET data IC50, Ras-Raf disruption
[19] = KRAS WT FRET data IC50, Ras-Raf disruption
[20] = NRAS G12C FRET data IC50, NRAS G12C
[21] = KRAS G12C FRET data IC50, Ras-Raf disruption

Chain of KRAS G12C (P01116 1-169 isoform P01116-2 G12C limits assumed): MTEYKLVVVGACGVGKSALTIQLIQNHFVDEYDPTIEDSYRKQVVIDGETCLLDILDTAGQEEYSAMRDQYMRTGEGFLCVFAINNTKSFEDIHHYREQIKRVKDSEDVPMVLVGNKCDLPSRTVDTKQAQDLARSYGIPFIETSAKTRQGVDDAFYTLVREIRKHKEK
Chain of KRAS G12C (P62937 whole entry): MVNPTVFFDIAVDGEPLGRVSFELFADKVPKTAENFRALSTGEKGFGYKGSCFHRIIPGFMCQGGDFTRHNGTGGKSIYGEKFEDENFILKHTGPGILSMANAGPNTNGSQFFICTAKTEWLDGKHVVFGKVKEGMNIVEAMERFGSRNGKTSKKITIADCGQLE
Chain of KRAS G13D (P01116 1-169 isoform P01116-2 G13D limits assumed): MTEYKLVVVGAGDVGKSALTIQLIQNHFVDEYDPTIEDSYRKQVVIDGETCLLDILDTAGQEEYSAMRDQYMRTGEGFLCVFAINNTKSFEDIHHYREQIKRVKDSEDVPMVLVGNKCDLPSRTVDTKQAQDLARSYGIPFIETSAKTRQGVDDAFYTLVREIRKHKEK
Chain of KRAS G13D (P62937 whole entry): as the sequence (P62937 whole entry) above
Chain of KRAS G12D (P01116 1-169 isoform P01116-2 G12D limits assumed): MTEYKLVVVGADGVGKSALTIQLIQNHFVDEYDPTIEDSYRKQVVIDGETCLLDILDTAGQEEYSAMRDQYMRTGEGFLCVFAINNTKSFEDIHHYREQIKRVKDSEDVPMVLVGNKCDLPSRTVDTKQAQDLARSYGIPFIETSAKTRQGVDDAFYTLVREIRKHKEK
Chain of KRAS G12D (P62937 whole entry): as the sequence (P62937 whole entry) above
Chain of KRAS G12S (P01116 1-169 isoform P01116-2 G12S limits assumed): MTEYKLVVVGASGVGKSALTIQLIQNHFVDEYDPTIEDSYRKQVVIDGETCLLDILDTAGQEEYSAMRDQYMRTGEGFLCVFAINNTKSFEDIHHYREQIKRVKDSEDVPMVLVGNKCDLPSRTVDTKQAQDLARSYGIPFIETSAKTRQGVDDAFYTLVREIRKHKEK
Chain of KRAS G12S (P62937 whole entry): as the sequence (P62937 whole entry) above
Chain of KRAS WT (P01116 1-169 isoform P01116-2 limits assumed): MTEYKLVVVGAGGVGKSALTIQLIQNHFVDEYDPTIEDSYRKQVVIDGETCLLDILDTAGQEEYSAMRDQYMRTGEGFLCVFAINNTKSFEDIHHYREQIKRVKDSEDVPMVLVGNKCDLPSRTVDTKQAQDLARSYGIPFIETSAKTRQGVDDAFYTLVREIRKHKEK
Chain of KRAS WT (P62937 whole entry): as the sequence (P62937 whole entry) above
Chain of KRAS G13C (P01116 1-169 isoform P01116-2 G13C limits assumed): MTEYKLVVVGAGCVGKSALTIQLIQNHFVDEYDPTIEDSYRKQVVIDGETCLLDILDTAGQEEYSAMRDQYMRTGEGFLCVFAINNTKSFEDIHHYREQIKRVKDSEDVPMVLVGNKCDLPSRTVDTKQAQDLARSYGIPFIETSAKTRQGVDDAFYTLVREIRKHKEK
Chain of KRAS G13C (P62937 whole entry): as the sequence (P62937 whole entry) above
Chain of KRAS G12V (P01116 1-169 isoform P01116-2 G12V limits assumed): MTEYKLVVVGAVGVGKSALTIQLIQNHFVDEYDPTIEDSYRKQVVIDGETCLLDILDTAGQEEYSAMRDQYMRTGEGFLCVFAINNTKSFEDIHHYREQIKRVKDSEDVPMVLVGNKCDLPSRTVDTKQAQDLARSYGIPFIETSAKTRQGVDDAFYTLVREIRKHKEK
Chain of KRAS G12V (P62937 whole entry): as the sequence (P62937 whole entry) above
Chain of NRAS G12C (P01111 whole entry G12C): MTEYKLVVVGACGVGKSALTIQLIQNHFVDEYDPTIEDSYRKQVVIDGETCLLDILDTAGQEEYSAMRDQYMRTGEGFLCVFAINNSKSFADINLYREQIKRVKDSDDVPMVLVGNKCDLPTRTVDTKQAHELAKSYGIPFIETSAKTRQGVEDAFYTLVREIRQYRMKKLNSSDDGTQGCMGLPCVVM
Chain of NRAS G12C (P62937 whole entry): as the sequence (P62937 whole entry) above

CCn1c(-c2cccnc2[C@H](C)OC)c2c3cc(ccc31)-c1cc(O)cc(c1)C[C@H](NC(=O)[C@H](C(C)C)N(C)C(=O)CN(C)C(=O)[C@@H]1CN1C(C)C)C(=O)N1CCC[C@H](N1)C(=O)OCC(C)(C)C2 (stereo partly drawn) [Example 148]
pEC50 ([1]; ASPC1, read-out: pERK EC50): > 5.30 | pIC50 [2, 12]: 6.00 to 7.00 | pIC50 [3, 13]: > 8.00 | pIC50 [4, 14]: 7.00 to 8.00 | pIC50 [5, 15]: 7.00 to 8.00 | pIC50 [6, 16]: 7.00 to 8.00 | pIC50 [7, 17]: 7.00 to 8.00 | pIC50 [8, 18]: 7.00 to 8.00 | pIC50 [9, 19]: 7.00 to 8.00 | pIC50 [10, 20]: > 8.00 | pIC50 [11, 21]: > 8.00

CCn1c(-c2cccnc2[C@H](C)OC)c2c3cc(ccc31)-c1cc(O)cc(c1)C[C@H](NC(=O)[C@H](C(C)C)N(C)C(=O)CN(C)C(=O)[C@@H]1N[C@@H]1C1CC1)C(=O)N1CCC[C@H](N1)C(=O)OCC(C)(C)C2 [Example 133]
pEC50 ([1]; ASPC1, read-out: pERK EC50): > 5.30 | pIC50 [2, 12]: 7.00 to 8.00 | pIC50 [3, 13]: 7.00 to 8.00 | pIC50 [4, 14]: 7.00 to 8.00 | pIC50 [5, 15]: 7.00 to 8.00 | pIC50 [6, 16]: 7.00 to 8.00 | pIC50 [7, 17]: 7.00 to 8.00 | pIC50 [8, 18]: 7.00 to 8.00 | pIC50 [9, 19]: 7.00 to 8.00 | pIC50 [10, 20]: 7.00 to 8.00 | pIC50 [11, 21]: 7.00 to 8.00

CCn1c(-c2cccnc2[C@H](C)OC)c2c3cc(ccc31)-c1cc(O)cc(c1)C[C@H](NC(=O)[C@H](C(C)C)N(C)C(=O)CN(C)C(=O)[C@H]1CN1Cc1ccccc1CO)C(=O)N1CCC[C@H](N1)C(=O)OCC(C)(C)C2 (stereo partly drawn) [Example 156]
pEC50 ([1]; ASPC1, read-out: pERK EC50): > 5.30 | pIC50 [2, 12]: 6.00 to 7.00 | pIC50 [3, 13]: > 8.00 | pIC50 [4, 14]: 6.00 to 7.00 | pIC50 [5, 15]: 7.00 to 8.00 | pIC50 [6, 16]: 7.00 to 8.00 | pIC50 [7, 17]: 7.00 to 8.00 | pIC50 [8, 18]: 6.00 to 7.00 | pIC50 [9, 19]: 7.00 to 8.00 | pIC50 [10, 20]: > 8.00 | pIC50 [11, 21]: > 8.00

CCn1c(-c2cccnc2[C@H](C)OC)c2c3cc(ccc31)-c1cccc(c1)C[C@H](NC(=O)[C@H](C(C)C)N(C)C(=O)[C@H]1CCN(C(=O)[C@H]3CN3)C1)C(=O)N1CCC[C@H](N1)C(=O)OCC(C)(C)C2 [Example 106]
pEC50 ([1]; ASPC1, AsPC-1 KRAS G12D, read-out: pERK EC50): > 5.30 | pIC50 ([2]; K-Ras G12D, 5-day treatment, read-out: AsPC-1 Cell Viability assay data IC50): 5.00 to 6.00 | pIC50 ([3]; K-Ras G12C, 5-day treatment, read-out: H358 Cell Viability assay data IC50): > 8.00 | pIC50 ([4]; Ras-Raf disruption, read-out: KRAS G12D FRET data IC50): 5.00 to 6.00 | pIC50 ([5]; Ras-Raf disruption, read-out: KRAS G12S FRET data IC50): 5.00 to 6.00 | pIC50 ([6]; Ras-Raf disruption, read-out: KRAS G12V FRET data IC50): 5.00 to 6.00 | pIC50 ([7]; Ras-Raf disruption, read-out: KRAS G13C FRET data IC50): 6.00 to 7.00 | pIC50 ([8]; Ras-Raf disruption, read-out: KRAS G13D FRET data IC50): 5.00 to 6.00 | pIC50 ([9]; Ras-Raf disruption, read-out: KRAS WT FRET data IC50): 5.00 to 6.00 | pIC50 ([10]; NRAS G12C, read-out: NRAS G12C FRET data IC50): 7.00 to 8.00 | pIC50 ([11]; Ras-Raf disruption, read-out: KRAS G12C FRET data IC50): 7.00 to 8.00

CCn1c(-c2cccnc2[C@H](C)OC)c2c3cc(ccc31)-c1cc(O)cc(c1)C[C@H](NC(=O)[C@H](C(C)C)N(C)C(=O)CN(C)C(=O)[C@@H]1N[C@H]1COC)C(=O)N1CCC[C@H](N1)C(=O)OCC(C)(C)C2 [Example 85]
pEC50 ([1]; ASPC1, read-out: pERK EC50): > 5.30 | pIC50 [2, 12]: 5.00 to 6.00 | pIC50 [3, 13]: 7.00 to 8.00 | pIC50 [4, 14]: 6.00 to 7.00 | pIC50 [5, 15]: 7.00 to 8.00 | pIC50 [6, 16]: 7.00 to 8.00 | pIC50 [7, 17]: > 8.00 | pIC50 [8, 18]: 7.00 to 8.00 | pIC50 [9, 19]: 7.00 to 8.00 | pIC50 [10, 20]: 7.00 to 8.00 | pIC50 [11, 21]: 7.00 to 8.00

CCn1c(-c2cccnc2[C@H](C)OC)c2c3cc(ccc31)-c1cc(O)cc(c1)C[C@H](NC(=O)[C@H](C(C)C)N(C)C(=O)CN(C)C(=O)[C@@H]1CN1CCOC)C(=O)N1CCC[C@H](N1)C(=O)OCC(C)(C)C2 (stereo partly drawn) [Example 160]
pEC50 ([1]; ASPC1, read-out: pERK EC50): > 5.30 | pIC50 [2, 12]: 6.00 to 7.00 | pIC50 [3, 13]: > 8.00 | pIC50 [4, 14]: 6.00 to 7.00 | pIC50 [5, 15]: 7.00 to 8.00 | pIC50 [6, 16]: 7.00 to 8.00 | pIC50 [7, 17]: 7.00 to 8.00 | pIC50 [8, 18]: 6.00 to 7.00 | pIC50 [9, 19]: 7.00 to 8.00 | pIC50 [10, 20]: > 8.00 | pIC50 [11, 21]: 7.00 to 8.00
